Where a SMILES comes first, the peptide text is derived from it. [ ]: non-standard residue; d: D form. Aib = CC(C)(N)C(=O)O

One assay concerns Mouse monocyte/macrophage cell line, RAW 264.7. The assay is described as follows: Cholesterol efflux assay (3H-cholesterol, macrophage cell line). Format: cell-based. To be noted: RAW 264.7, 4 hrs incubation, 0.1% human serum albumin, ABCA1-mediated efflux.
For `CC[C@H](C)[C@H](NC(=O)[C@H](Cc1ccccc1)NC(=O)[C@H](CCC(=O)O)NC(=O)[C@H](CCCCN)NC(=O)[C@H](C)NC(=O)[C@H](C)NC(=O)[C@H](CCC(N)=O)NC(=O)CNC(=O)[C@H](CCC(=O)O)NC(=O)[C@H](CC(C)C)NC(=O)[C@H](Cc1ccc(O)cc1)NC(=O)[C@H](CO)NC(=O)[C@H](CO)NC(=O)[C@@H](NC(=O)[C@H](CC(=O)O)NC(=O)[C@H](CO)NC(=O)[C@@H](NC(=O)[C@H](Cc1ccccc1)NC(=O)[C@@H](NC(=O)CNC(=O)[C@H](CCC(=O)O)NC(=O)C(C)(C)NC(=O)[C@@H](N)Cc1c[nH]cn1)[C@@H](C)O)[C@@H](C)O)C(C)C)C(=O)N[C@@H](C)C(=O)N[C@@H](Cc1c[nH]c2ccccc12)C(=O)N[C@@H](CC(C)C)C(=O)N[C@H](C(=O)N[C@@H](CCCCN)C(=O)N[C@@H](CCCCN)C(=O)NC(C)(C)C(=O)N[C@@H](CCCCN)C(=O)N[C@@H](CCC(=O)O)C(=O)N[C@@H](Cc1ccccc1)C(=O)N[C@@H](CC(C)C)C(N)=O)C(C)C` [Compound 47, [Aib8,Lys35,Aib36,Lys37]-GLP-1-(7-37)-peptidyl-Glu-Phe-Leu amide], the “4 h Cholesterol Efflux Emax” value was 55%.
Consider `CC[C@H](C)[C@H](NC(=O)[C@H](Cc1ccccc1)NC(=O)[C@H](CCCCN)NC(=O)[C@H](CCCCN)NC(=O)[C@@H](NC(=O)[C@H](C)NC(=O)[C@H](CCC(=O)O)NC(=O)CNC(=O)[C@H](CCC(=O)O)NC(=O)[C@H](CC(C)C)NC(=O)[C@H](Cc1ccc(O)cc1)NC(=O)[C@H](CO)NC(=O)[C@H](CO)NC(=O)[C@@H](NC(=O)[C@H](CC(=O)O)NC(=O)[C@H](CO)NC(=O)[C@@H](NC(=O)[C@H](Cc1ccccc1)NC(=O)[C@@H](NC(=O)CNC(=O)[C@H](CCC(=O)O)NC(=O)C(C)(C)NC(=O)[C@@H](N)Cc1c[nH]cn1)[C@@H](C)O)[C@@H](C)O)C(C)C)C(C)C)C(=O)N[C@@H](C)C(=O)N[C@@H](Cc1c[nH]c2ccccc12)C(=O)N[C@@H](CC(C)C)C(=O)N[C@H](C(=O)N[C@@H](CCC(=O)O)C(=O)N[C@@H](CCCCN)C(=O)NC(C)(C)C(=O)N[C@@H](CCCCN)C(=O)N[C@@H](CCC(=O)O)C(=O)N[C@@H](Cc1ccccc1)C(=O)N[C@@H](CC(C)C)C(N)=O)C(C)C` [Compound 51, [Aib8,Glu23,Val25,Lys27,Glu34,Lys35,Aib36,Lys37]-GLP-1-(7-37)-peptidyl-Glu-Phe-Leu amide] (H-H[Aib]EGTFTSDVSSYLEGEAVKKFIAWLVEK[Aib]KEFL-NH2; N-terminus assumed), for which the “4 h Cholesterol Efflux Emax” value worked out at 117%.
For the molecule `CC[C@H](C)[C@H](NC(=O)[C@H](Cc1ccccc1)NC(=O)[C@H](CCC(=O)O)NC(=O)[C@H](CCCNC(=N)N)NC(=O)[C@H](C)NC(=O)[C@H](CCCNC(=N)N)NC(=O)[C@H](CCCCN)NC(=O)CNC(=O)[C@H](CCC(=O)O)NC(=O)[C@H](CC(C)C)NC(=O)[C@H](Cc1ccc(O)cc1)NC(=O)[C@H](CO)NC(=O)[C@H](CO)NC(=O)[C@@H](NC(=O)[C@H](CC(=O)O)NC(=O)[C@H](CO)NC(=O)[C@@H](NC(=O)[C@H](Cc1ccccc1)NC(=O)[C@@H](NC(=O)CNC(=O)[C@H](CCC(=O)O)NC(=O)C(C)(C)NC(=O)[C@@H](N)Cc1c[nH]cn1)[C@@H](C)O)[C@@H](C)O)C(C)C)C(=O)N[C@@H](C)C(=O)N[C@@H](Cc1c[nH]c2ccccc12)C(=O)N[C@@H](CC(C)C)C(=O)N[C@H](C(=O)N[C@@H](CCC(=O)O)C(=O)N[C@@H](CCCCN)C(=O)NC(C)(C)C(=O)N[C@@H](CCCCN)C(=O)N[C@@H](CCC(=O)O)C(=O)N[C@@H](Cc1ccccc1)C(=O)N[C@@H](CC(C)C)C(N)=O)C(C)C` [Compound 52, [Aib8,Lys23,Arq24,Arq26,Glu34,Lys35,Aib36,Lys37]-GLP-1-(7-37)-peptidyl-Glu-Phe-Leu amide] (H-H[Aib]EGTFTSDVSSYLEGKRAREFIAWLVEK[Aib]KEFL-NH2), the “4 h Cholesterol Efflux Emax” value stood at 98%.
Same read-out and setting: with `CC[C@H](C)[C@H](NC(=O)[C@H](Cc1ccccc1)NC(=O)[C@H](CCC(=O)O)NC(=O)[C@H](CCCCN)NC(=O)[C@@H](NC(=O)[C@H](CCCCN)NC(=O)[C@H](CCC(=O)O)NC(=O)CNC(=O)[C@H](CCC(=O)O)NC(=O)[C@H](CC(C)C)NC(=O)[C@H](Cc1ccc(O)cc1)NC(=O)[C@H](CO)NC(=O)[C@H](CO)NC(=O)[C@@H](NC(=O)[C@H](CC(=O)O)NC(=O)[C@H](CO)NC(=O)[C@@H](NC(=O)[C@H](Cc1ccccc1)NC(=O)[C@@H](NC(=O)CNC(=O)[C@H](CCC(=O)O)NC(=O)C(C)(C)NC(=O)[C@@H](N)Cc1c[nH]cn1)[C@@H](C)O)[C@@H](C)O)C(C)C)C(C)C)C(=O)N[C@@H](C)C(=O)N[C@@H](Cc1c[nH]c2ccccc12)C(=O)N[C@@H](CC(C)C)C(=O)N[C@H](C(=O)N[C@@H](CCC(=O)O)C(=O)N[C@@H](CCCCN)C(=O)NC(C)(C)C(=O)N[C@@H](CCCCN)C(=O)N[C@@H](CCC(=O)O)C(=O)N[C@@H](Cc1ccccc1)C(=O)N[C@@H](CC(C)C)C(N)=O)C(C)C` [Compound 60, [Aib8,Glu23,Lys24,Val25,Glu34,Lys35,Aib36,Lys37]-GLP-1-(7-37)-peptidyl-Glu-Phe-Leu amide] (H-H[Aib]EGTFTSDVSSYLEGEKVKEFIAWLVEK[Aib]KEFL-NH2) the figure was 111%; with `CC[C@H](C)[C@H](NC(=O)[C@H](Cc1ccccc1)NC(=O)[C@H](CCC(=O)O)NC(=O)[C@H](CCCCN)NC(=O)[C@@H](NC(=O)[C@H](CCCCN)NC(=O)[C@H](CCC(=O)O)NC(=O)CNC(=O)[C@H](CCC(=O)O)NC(=O)[C@H](CC(C)C)NC(=O)[C@H](Cc1ccc(O)cc1)NC(=O)[C@H](CO)NC(=O)[C@H](CO)NC(=O)[C@@H](NC(=O)[C@H](CC(=O)O)NC(=O)[C@H](CO)NC(=O)[C@@H](NC(=O)[C@H](Cc1ccccc1)NC(=O)[C@@H](NC(=O)CNC(=O)[C@H](CCC(=O)O)NC(=O)C(C)(C)NC(=O)[C@@H](N)Cc1c[nH]cn1)[C@@H](C)O)[C@@H](C)O)C(C)C)C(C)C)C(=O)N[C@@H](CCC(=O)O)C(=O)N[C@@H](Cc1c[nH]cn1)C(=O)N[C@@H](CC(C)C)C(=O)N[C@H](C(=O)N[C@@H](CCC(=O)O)C(=O)N[C@@H](CCCCN)C(=O)NC(C)(C)C(=O)N[C@@H](CCCCN)C(=O)N[C@@H](CCC(=O)O)C(=O)N[C@@H](Cc1ccccc1)C(=O)N[C@@H](CC(C)C)C(N)=O)C(C)C` [Compound 71, [Aib8,Glu23,Lys24,Val25,Glu30,His31,Glu34,Lys35,Aib36,Lys37]-GLP-1-(7-37)-peptidyl-Glu-Phe-Leu amide] (H-H[Aib]EGTFTSDVSSYLEGEKVKEFIEHLVEK[Aib]KEFL-NH2), 130%.
Still for that read-out and setting: with `CC[C@H](C)[C@H](NC(=O)[C@H](Cc1ccccc1)NC(=O)[C@H](CCC(N)=O)NC(=O)[C@H](CCCCN)NC(=O)[C@@H](NC(=O)[C@H](C)NC(=O)[C@H](CCC(N)=O)NC(=O)CNC(=O)[C@H](CCC(=O)O)NC(=O)[C@H](CC(C)C)NC(=O)[C@H](Cc1ccc(O)cc1)NC(=O)[C@H](CO)NC(=O)[C@H](CO)NC(=O)[C@@H](NC(=O)[C@H](CC(=O)O)NC(=O)[C@H](CO)NC(=O)[C@@H](NC(=O)[C@H](Cc1ccccc1)NC(=O)[C@@H](NC(=O)CNC(=O)[C@H](CCC(=O)O)NC(=O)C(C)(C)NC(=O)[C@@H](N)Cc1c[nH]cn1)[C@@H](C)O)[C@@H](C)O)C(C)C)C(C)C)C(=O)N[C@@H](C)C(=O)N[C@@H](Cc1c[nH]c2ccccc12)C(=O)N[C@@H](CC(C)C)C(=O)N[C@H](C(=O)N[C@@H](CCC(=O)O)C(=O)N[C@@H](CCCCN)C(=O)NC(C)(C)C(=O)N[C@@H](C)C(=O)N[C@@H](CCC(=O)O)C(=O)N[C@@H](Cc1ccccc1)C(=O)N[C@@H](CC(C)C)C(N)=O)C(C)C` [Compound 72] (H-H[Aib]EGTFTSDVSSYLEGQAVKQFIAWLVEK[Aib]AEFL-NH2) the figure was 78%.
Consider `CC[C@H](C)[C@H](NC(=O)[C@H](Cc1ccccc1)NC(=O)[C@H](CCC(N)=O)NC(=O)[C@H](CCCCN)NC(=O)[C@@H](NC(=O)[C@H](C)NC(=O)[C@H](CCC(N)=O)NC(=O)CNC(=O)[C@H](CCC(=O)O)NC(=O)[C@H](CC(C)C)NC(=O)[C@H](Cc1ccc(O)cc1)NC(=O)[C@H](CO)NC(=O)[C@H](CO)NC(=O)[C@@H](NC(=O)[C@H](CC(=O)O)NC(=O)[C@H](CO)NC(=O)[C@@H](NC(=O)[C@H](Cc1ccccc1)NC(=O)[C@@H](NC(=O)CNC(=O)[C@H](CCC(=O)O)NC(=O)C(C)(C)NC(=O)[C@@H](N)Cc1c[nH]cn1)[C@@H](C)O)[C@@H](C)O)C(C)C)C(C)C)C(=O)N[C@@H](C)C(=O)N[C@@H](Cc1c[nH]c2ccccc12)C(=O)N[C@@H](CC(C)C)C(=O)N[C@H](C(=O)N[C@@H](CC(N)=O)C(=O)N[C@@H](CCCCN)C(=O)NC(C)(C)C(=O)N[C@@H](C)C(=O)N[C@@H](CCC(=O)O)C(=O)N[C@@H](Cc1ccccc1)C(=O)N[C@@H](CC(C)C)C(N)=O)C(C)C` [Compound 74] (H-H[Aib]EGTFTSDVSSYLEGQAVKQFIAWLVNK[Aib]AEFL-NH2), for which the “4 h Cholesterol Efflux Emax” value turned out to be 91%.
For `CC[C@H](C)[C@H](NC(=O)[C@H](Cc1ccccc1)NC(=O)[C@H](CCC(=O)O)NC(=O)[C@H](CCCCN)NC(=O)[C@H](C)NC(=O)[C@H](C)NC(=O)[C@H](CCC(N)=O)NC(=O)CNC(=O)[C@H](CCC(=O)O)NC(=O)[C@H](CC(C)C)NC(=O)[C@H](Cc1ccc(O)cc1)NC(=O)[C@H](CO)NC(=O)[C@H](CO)NC(=O)[C@@H](NC(=O)[C@H](CC(=O)O)NC(=O)[C@H](CO)NC(=O)[C@@H](NC(=O)[C@H](Cc1ccccc1)NC(=O)[C@@H](NC(=O)CNC(=O)[C@H](CCC(=O)O)NC(=O)C(C)(C)NC(=O)[C@@H](N)Cc1c[nH]cn1)[C@@H](C)O)[C@@H](C)O)C(C)C)C(=O)N[C@@H](C)C(=O)N[C@@H](Cc1c[nH]c2ccccc12)C(=O)N[C@@H](CC(C)C)C(=O)N[C@H](C(=O)N[C@@H](CCCCN)C(=O)NCC(=O)N[C@H](C(=O)NCC(=O)N[C@@H](CCC(=O)O)C(=O)N[C@@H](Cc1ccccc1)C(=O)N[C@@H](CC(C)C)C(N)=O)C(C)C)C(C)C` [Compound 75], the “4 h Cholesterol Efflux Emax” value is 68%.

The assay is the same for the next values; noted with them: read-out: 4 h Cholesterol Efflux EC50; RAW 264.7, 4 hrs incubation, 0.1% human serum albumin, ABCA1-mediated efflux (CPT-cAMP induced minus non-induced).
Broadly, the EC50 is the concentration giving half of the maximal effect. On to `CC[C@H](C)[C@H](NC(=O)[C@H](Cc1ccccc1)NC(=O)[C@H](CCCCN)NC(=O)[C@H](CCCCN)NC(=O)[C@@H](NC(=O)[C@H](C)NC(=O)[C@H](CCC(=O)O)NC(=O)CNC(=O)[C@H](CCC(=O)O)NC(=O)[C@H](CC(C)C)NC(=O)[C@H](Cc1ccc(O)cc1)NC(=O)[C@H](CO)NC(=O)[C@H](CO)NC(=O)[C@@H](NC(=O)[C@H](CC(=O)O)NC(=O)[C@H](CO)NC(=O)[C@@H](NC(=O)[C@H](Cc1ccccc1)NC(=O)[C@@H](NC(=O)CNC(=O)[C@H](CCC(=O)O)NC(=O)C(C)(C)NC(=O)[C@@H](N)Cc1c[nH]cn1)[C@@H](C)O)[C@@H](C)O)C(C)C)C(C)C)C(=O)N[C@@H](C)C(=O)N[C@@H](Cc1c[nH]c2ccccc12)C(=O)N[C@@H](CC(C)C)C(=O)N[C@H](C(=O)N[C@@H](CCC(=O)O)C(=O)N[C@@H](CCCCN)C(=O)NC(C)(C)C(=O)N[C@@H](CCCCN)C(=O)N[C@@H](CCC(=O)O)C(=O)N[C@@H](Cc1ccccc1)C(=O)N[C@@H](CC(C)C)C(N)=O)C(C)C` [Compound 51, [Aib8,Glu23,Val25,Lys27,Glu34,Lys35,Aib36,Lys37]-GLP-1-(7-37)-peptidyl-Glu-Phe-Leu amide] (H-H[Aib]EGTFTSDVSSYLEGEAVKKFIAWLVEK[Aib]KEFL-NH2; N-terminus assumed), for which the 50% effective concentration (EC50) was 440 nM.

(Values after US20150344540A1, “NOVEL GLP-1 RECEPTOR AGONISTS WITH CHOLESTEROL EFFLUX ACTIVITY” (NOVO NORDISK A/S, priority 2012, published 2015).)
